How the values were obtained:
REH = experiment: cells; assay type: functional, cell-based, Homo sapiens
Description: SANGER: Inhibition of human REH cell growth in a cell viability assay.

PC-14 = experiment: cells; assay type: functional, cell-based, Homo sapiens
Description: SANGER: Inhibition of human PC-14 cell growth in a cell viability assay.

Calu-3 = experiment: cells; assay type: functional, cell-based, Homo sapiens
Description: SANGER: Inhibition of human Calu-3 cell growth in a cell viability assay.

NCI-H1437 = experiment: cells; assay type: functional, cell-based, Homo sapiens
Description: SANGER: Inhibition of human NCI-H1437 cell growth in a cell viability assay.

COLO-680N = experiment: cells; assay type: functional, cell-based, Homo sapiens
Description: SANGER: Inhibition of human COLO-680N cell growth in a cell viability assay.

DMS-273 = experiment: cells; assay type: functional, cell-based, Homo sapiens
Description: SANGER: Inhibition of human DMS-273 cell growth in a cell viability assay.

CWR22R = experiment: cells; assay type: functional, cell-based, Homo sapiens
Description: SANGER: Inhibition of human 22RV1 cell growth in a cell viability assay.

HCT-116 = experiment: cells; assay type: functional, cell-based, Homo sapiens
Description: SANGER: Inhibition of human HCT-116 cell growth in a cell viability assay.

NCI-H520 = experiment: cells; assay type: functional, cell-based, Homo sapiens
Description: SANGER: Inhibition of human NCI-H520 cell growth in a cell viability assay.

TE-441-T = experiment: cells; assay type: functional, cell-based, Homo sapiens
Description: SANGER: Inhibition of human TE-441-T cell growth in a cell viability assay.

DBTRG-05MG = experiment: cells; assay type: functional, cell-based, Homo sapiens
Description: SANGER: Inhibition of human DBTRG-05MG cell growth in a cell viability assay.

C32 = experiment: cells; assay type: functional, cell-based, Homo sapiens
Description: SANGER: Inhibition of human C32 cell growth in a cell viability assay.

DK-MG = experiment: cells; assay type: functional, cell-based, Homo sapiens
Description: SANGER: Inhibition of human DK-MG cell growth in a cell viability assay.

OE19 = experiment: cells; assay type: functional, cell-based, Homo sapiens
Description: SANGER: Inhibition of human OE19 cell growth in a cell viability assay.

CAL-51 = experiment: cells; assay type: functional, cell-based, Homo sapiens
Description: SANGER: Inhibition of human CAL-51 cell growth in a cell viability assay.

BHY = experiment: cells; assay type: functional, cell-based, Homo sapiens
Description: SANGER: Inhibition of human BHY cell growth in a cell viability assay.

NCI-H28 = experiment: cells; assay type: functional, cell-based, Homo sapiens
Description: SANGER: Inhibition of human NCI-H28 cell growth in a cell viability assay.

EFO-21 = experiment: cells; assay type: functional, cell-based, Homo sapiens
Description: SANGER: Inhibition of human EFO-21 cell growth in a cell viability assay.

ME-180 = experiment: cells; assay type: functional, cell-based, Homo sapiens
Description: SANGER: Inhibition of human ME-180 cell growth in a cell viability assay.

HCC1569 = experiment: cells; assay type: functional, cell-based, Homo sapiens
Description: SANGER: Inhibition of human HCC1569 cell growth in a cell viability assay.

DG-75 = experiment: cells; assay type: functional, cell-based, Homo sapiens
Description: SANGER: Inhibition of human DG-75 cell growth in a cell viability assay.

MDA-MB-175-VII = experiment: cells; assay type: functional, cell-based, Homo sapiens
Panc1005 = experiment: cells; assay type: functional, cell-based, Homo sapiens
Description: SANGER: Inhibition of human PANC-10-05 cell growth in a cell viability assay.

CMK = experiment: cells; assay type: functional, cell-based, Homo sapiens
Description: SANGER: Inhibition of human CMK cell growth in a cell viability assay.

NCI-H1522 = experiment: cells; assay type: functional, cell-based, Homo sapiens
Description: SANGER: Inhibition of human NCI-H1522 cell growth in a cell viability assay.

PF-382 = experiment: cells; assay type: functional, cell-based, Homo sapiens
Description: SANGER: Inhibition of human PF-382 cell growth in a cell viability assay.

VMRC-RCZ = experiment: cells; assay type: functional, cell-based, Homo sapiens
Description: SANGER: Inhibition of human VMRC-RCZ cell growth in a cell viability assay.

RPMI-2650 = experiment: cells; assay type: functional, cell-based, Homo sapiens
Description: SANGER: Inhibition of human RPMI-2650 cell growth in a cell viability assay.

BC1 cell line = experiment: SANGER: Inhibition of human BC-1 cell growth in a cell viability assay.; assay type: functional, cell-based
M14 = experiment: cells; assay type: functional, cell-based, Homo sapiens
Description: SANGER: Inhibition of human M14 cell growth in a cell viability assay.

ChaGo-K-1 = experiment: cells; assay type: functional, cell-based, Homo sapiens
Description: SANGER: Inhibition of human ChaGo-K-1 cell growth in a cell viability assay.

MIA PaCa-2 = experiment: cells; assay type: functional, cell-based, Homo sapiens
Description: SANGER: Inhibition of human MIA-PaCa-2 cell growth in a cell viability assay.

CAL-72 = experiment: cells; assay type: functional, cell-based, Homo sapiens
Description: SANGER: Inhibition of human CAL-72 cell growth in a cell viability assay.

UACC-812 = experiment: cells; assay type: functional, cell-based, Homo sapiens
Description: SANGER: Inhibition of human UACC-812 cell growth in a cell viability assay.

KYSE-70 cell line = experiment: cells; assay type: functional, cell-based, Homo sapiens
Description: SANGER: Inhibition of human KYSE-70 cell growth in a cell viability assay.

SBC-5 = experiment: cells; assay type: functional, cell-based, Homo sapiens
Description: SANGER: Inhibition of human SBC-5 cell growth in a cell viability assay.

OVCAR-3 = experiment: cells; assay type: functional, cell-based, Homo sapiens
Description: SANGER: Inhibition of human OVCAR-3 cell growth in a cell viability assay.

COLO-679 = experiment: cells; assay type: functional, cell-based, Homo sapiens
Description: SANGER: Inhibition of human COLO-679 cell growth in a cell viability assay.

MKN-1 = experiment: cells; assay type: functional, cell-based, Homo sapiens
Description: SANGER: Inhibition of human MKN1 cell growth in a cell viability assay.

SW1417 = experiment: cells; assay type: functional, cell-based, Homo sapiens
Description: SANGER: Inhibition of human SW1417 cell growth in a cell viability assay.

LOUCY = experiment: cells; assay type: functional, cell-based, Homo sapiens
Description: SANGER: Inhibition of human LOUCY cell growth in a cell viability assay.

C3A = experiment: cells; assay type: functional, cell-based, Homo sapiens
Description: SANGER: Inhibition of human C3A cell growth in a cell viability assay.

NCI-H1694 = experiment: cells; assay type: functional, cell-based, Homo sapiens
Description: SANGER: Inhibition of human NCI-H1694 cell growth in a cell viability assay.

## BLEOMYCIN
REH; reh
  IC50: 13.4 nM
PC-14; pc-14
  IC50: 183 nM
Calu-3; calu-3
  IC50: 6.19 µM
NCI-H1437; nci-h1437
  IC50: 743 nM
COLO-680N; colo-680n
  IC50: 5.76 µM
DMS-273; dms-273
  IC50: 2980 nM
CWR22R; cwr22r
  IC50: 7.33 µM
HCT-116; hct-116
  IC50: 2880 nM
NCI-H520; nci-h520
  IC50: 16.1 µM
TE-441-T; te-441-t
  IC50: 24.6 µM
DBTRG-05MG; dbtrg-05mg
  IC50: 5.67 µM
C32; c32
  IC50: 471 µM
DK-MG; dk-mg
  IC50: 85.8 µM
OE19; oe19
  IC50: 2140 nM
CAL-51; cal-51
  IC50: 0.099 nM
BHY; bhy
  IC50: 1830 nM
NCI-H28; nci-h28
  IC50: 2740 nM
EFO-21; efo-21
  IC50: 4.33 µM
ME-180; me-180
  IC50: 40.9 µM
HCC1569; hcc1569
  IC50: 604 nM
DG-75; dg-75
  IC50: 16.9 µM
MDA-MB-175-VII; mda-mb-175-vii
  IC50: 1510 nM
Panc1005; panc1005
  IC50: 256 nM
CMK; cmk
  IC50: 14.8 µM
NCI-H1522; nci-h1522
  IC50: 2.45 mM
PF-382; pf-382
  IC50: 426 nM
VMRC-RCZ; vmrc-rcz
  IC50: 2690 nM
RPMI-2650; rpmi-2650
  IC50: 633 nM
BC1 cell line; bc1
  IC50: 3.92 µM
M14; m14
  IC50: 3.22 µM
ChaGo-K-1; chago-k-1
  IC50: 16.4 µM
MIA PaCa-2; mia paca-2
  IC50: 111 nM
CAL-72; cal-72
  IC50: 580 µM
UACC-812; uacc-812
  IC50: 99.6 µM
KYSE-70 cell line; kyse-70
  IC50: 1380 nM
SBC-5; sbc-5
  IC50: 624 nM
OVCAR-3; ovcar-3
  IC50: 123 µM
COLO-679; colo-679
  IC50: 2660 nM
MKN-1; mkn-1
  IC50: 79.6 nM
SW1417; sw1417
  IC50: 249 µM
LOUCY; loucy
  IC50: 9.93 nM
C3A; c3a
  IC50: 296 nM
NCI-H1694; nci-h1694
  IC50: 43.9 µM

## CCC/C=C/C=C/C(=O)O[C@H]1/C(=C/C(=O)OC)C[C@H]2C[C@H]([C@@H](C)O)OC(=O)C[C@H](O)C[C@@H]3C[C@H](OC(C)=O)C(C)(C)[C@](O)(C[C@@H]4C/C(=C/C(=O)OC)C[C@H](/C=C/C(C)(C)[C@]1(O)O2)O4)O3 [BRYOSTATIN 1]
REH; Homo sapiens, REH
  IC50: > 8 nM
PC-14; Homo sapiens, PC-14
  IC50: > 8 nM
Calu-3; Homo sapiens, Calu-3
  IC50: > 0.008 µM
NCI-H1437; Homo sapiens, NCI-H1437
  IC50: > 8 nM
COLO-680N; Homo sapiens, COLO-680N
  IC50: > 0.008 µM
DMS-273; Homo sapiens, DMS-273
  IC50: > 8 nM
CWR22R; Homo sapiens, 22Rv1
  IC50: > 0.008 µM
HCT-116; Homo sapiens, HCT-116
  IC50: > 8 nM
NCI-H520; Homo sapiens, NCI-H520
  IC50: > 0.008 µM
TE-441-T; Homo sapiens, TE-441-T
  IC50: > 0.008 µM
DBTRG-05MG; Homo sapiens, DBTRG-05MG
  IC50: > 0.008 µM
C32; Homo sapiens, C32
  IC50: > 0.008 µM
DK-MG; Homo sapiens, DK-MG
  IC50: > 0.008 µM
OE19; Homo sapiens, OE19
  IC50: > 8 nM
CAL-51; Homo sapiens, CAL-51
  IC50: > 8 nM
BHY; Homo sapiens, BHY
  IC50: > 8 nM
NCI-H28; Homo sapiens, NCI-H28
  IC50: > 8 nM
EFO-21; Homo sapiens, EFO-21
  IC50: > 0.008 µM
ME-180; Homo sapiens, ME-180
  IC50: > 0.008 µM
HCC1569; Homo sapiens, HCC1569
  IC50: > 8 nM
DG-75; Homo sapiens, DG-75
  IC50: > 0.008 µM
MDA-MB-175-VII; Homo sapiens, MDA-MB-175-VII
  IC50: > 8 nM
Panc1005; Homo sapiens, Panc1005
  IC50: > 8 nM
CMK; Homo sapiens, CMK
  IC50: > 0.008 µM
NCI-H1522; Homo sapiens, NCI-H1522
  IC50: > 8e-06 mM
PF-382; Homo sapiens, PF-382
  IC50: > 8 nM
VMRC-RCZ; Homo sapiens, VMRC-RCZ
  IC50: > 8 nM
RPMI-2650; Homo sapiens, RPMI-2650
  IC50: > 8 nM
BC1 cell line; Homo sapiens, BC1
  IC50: > 0.008 µM
M14; Homo sapiens, M14
  IC50: > 0.008 µM
ChaGo-K-1; Homo sapiens, ChaGo-K-1
  IC50: > 0.008 µM
MIA PaCa-2; Homo sapiens, MIA PaCa-2
  IC50: > 8 nM
CAL-72; Homo sapiens, CAL-72
  IC50: > 0.008 µM
UACC-812; Homo sapiens, UACC-812
  IC50: > 0.008 µM
KYSE-70 cell line; Homo sapiens, KYSE-70
  IC50: > 8 nM
SBC-5; Homo sapiens, SBC-5
  IC50: > 8 nM
OVCAR-3; Homo sapiens, OVCAR-3
  IC50: > 0.008 µM
COLO-679; Homo sapiens, COLO-679
  IC50: > 8 nM
MKN-1; Homo sapiens, MKN-1
  IC50: > 8 nM
SW1417; Homo sapiens, SW1417
  IC50: > 0.008 µM
LOUCY; Homo sapiens, LOUCY
  IC50: > 8 nM
C3A; Homo sapiens, C3A
  IC50: > 8 nM
NCI-H1694; Homo sapiens, NCI-H1694
  IC50: > 0.008 µM

— ChEMBL document CHEMBL1201861, “Genomics of Drug Sensitity in Cancer screening data, Wellcome Trust Sanger Institute”
